According to paper PMC7311426, “An amphipathic peptide with antibiotic activity against multidrug-resistant Gram-negative bacteria” (Nature Communications, 2020):
≈ marks a conversion by molar mass, not a printed value. Read-outs that look alike come from different tables or passages of the source.

Tests used:
Test in all cases: microbe, parasite or virus in culture
[1] = test system: A. baumannii clinical isolates
Procedure, shortened: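 MIC90 from CLSI broth microdilution (M07-A9) in two clinical-isolate panels. US panel (331 isolates, 2010-2012): AA139 diluted in 0.01% acetic acid/0.1% BSA. Worldwide panel (445 isolates, 2011-2013, four regions): CAMHB, with 0.002% Tween 80 added for AA139 and polymyxin B.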

A. baumannii = settings: Acinetobacter baumannii, mode of 6 replicates
Procedure, shortened: (§1)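 Broth microdilution in MHB, 2-fold 12-point series from 128 or 64 down to 0.06 or 0.03 μg mL^−1, 5 × 10^5 CFU mL^−1. Extra runs in CAMHB per CLSI and in MHB with 1% agarose; n ≥ 6.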

S. aureus = test system: S. aureus
Procedure, shortened: as §1

K. pneumoniae = settings: Klebsiella pneumoniae
Procedure, shortened: as §1

P. aeruginosa = settings: Pseudomonas aeruginosa
Procedure, shortened: as §1

[2] = A. baumannii, worldwide isolates 2011-2013, n = 108

In the case of `C[C@@H](O)[C@H]1C(=O)N2C(C(=O)O)=C(S[C@@H]3CN[C@H](C(=O)N(C)C)C3)[C@H](C)[C@H]12` [Meropenem, meropenem, reference compound], the “Number of isolates with MIC 0.125 (MIC frequency distribution)” value [1] is reported as 4, the MIC50 [1, 2] is reported as greater than 16 µg/mL and the MIC90 [1, 2] is reported as greater than 16 µg/mL. For the same molecule, the “Number of isolates with MIC 0.03 (MIC frequency distribution)” value ([1]; A. baumannii, worldwide isolates 2011-2013, n = 108, count of isolates at MIC 0.03) was 0, the “Number of isolates with MIC 0.06 (MIC frequency distribution)” value ([1]; A. baumannii, worldwide isolates 2011-2013, n = 108, count of isolates at MIC 0.06) was 1 and the “Number of isolates with MIC 0.25 (MIC frequency distribution)” value ([1]; A. baumannii, worldwide isolates 2011-2013, n = 108, count of isolates at MIC 0.25) was 10. The “Number of isolates with MIC 0.5 (MIC frequency distribution)” value ([1]; A. baumannii, worldwide isolates 2011-2013, n = 108, count of isolates at MIC 0.5) was 2, the “Number of isolates with MIC 1 (MIC frequency distribution)” value ([1]; A. baumannii, worldwide isolates 2011-2013, n = 108, count of isolates at MIC 1) was 1 and the “Number of isolates with MIC 2 (MIC frequency distribution)” value ([1]; A. baumannii, worldwide isolates 2011-2013, n = 108, count of isolates at MIC 2) was 3. For the same molecule, the “Number of isolates with MIC 4 (MIC frequency distribution)” value ([1]; A. baumannii, worldwide isolates 2011-2013, n = 108, count of isolates at MIC 4) was 2, the “Number of isolates with MIC 8 (MIC frequency distribution)” value ([1]; A. baumannii, worldwide isolates 2011-2013, n = 108, count of isolates at MIC 8) was 2 and the “Number of isolates with MIC 16 (MIC frequency distribution)” value ([1]; A. baumannii, worldwide isolates 2011-2013, n = 108, count of isolates at MIC 16) was 1. The “Number of isolates with MIC 32 (MIC frequency distribution)” value ([1]; A. baumannii, worldwide isolates 2011-2013, n = 108, count of isolates at MIC 32) was 0, the “Number of isolates with MIC 64 (MIC frequency distribution)” value ([1]; A. baumannii, worldwide isolates 2011-2013, n = 108, count of isolates at MIC 64) was 0 and the “Number of isolates with MIC 128 (MIC frequency distribution)” value ([1]; A. baumannii, worldwide isolates 2011-2013, n = 108, count of isolates at MIC 128) was 0. The “Number of isolates with MIC >16 (MIC frequency distribution)” value ([1]; A. baumannii, worldwide isolates 2011-2013, n = 108, count of isolates at MIC >16) was 82, the “Number of isolates with MIC >32 (MIC frequency distribution)” value ([1]; A. baumannii, worldwide isolates 2011-2013, n = 108, count of isolates at MIC >32) was 0 and the “Number of isolates with MIC >128 (MIC frequency distribution)” value ([1]; A. baumannii, worldwide isolates 2011-2013, n = 108, count of isolates at MIC >128) was 0. For the same molecule, the “Number of isolates with MIC ≤0.015 (MIC frequency distribution)” value ([1]; A. baumannii, worldwide isolates 2011-2013, n = 108, count of isolates at MIC ≤0.015) was 0, the MIC90 ([1]; Acinetobacter baumannii) was greater than 16 µg/mL and the MIC90 ([1]; US isolates 2010–2012, A. baumannii MDR, n = 19) was greater than 16 µg/mL. It also gave an MIC90 ([1]; US isolates 2010–2012, A. baumannii XDR, n = 31) greater than 16 µg/mL, an MIC (A. baumannii; ATCC19636, read-out: BMD MIC, A. baumannii ATCC 19636 type strain, CAMHB) of 1 µg/mL (≈ 2.61 µM) and an MIC (A. baumannii; ATCC19636, read-out: BMD MIC, A. baumannii ATCC 19636 type strain, MHB) of 0.5 µg/mL (≈ 1.3 µM). For the same molecule, the MIC (A. baumannii; read-out: BMD MIC, A. baumannii Greece CI, XDR, PmxR, MHB) was greater than 16 µg/mL, the “BMD MIC” value (S. aureus; S. aureus ATCC 25923 MSSA, CAMHB, mode of 6 replicates) was 0.06 µg/mL and the MIC (S. aureus; Staphylococcus aureus, ATCC25923 / MSSA, read-out: BMD MIC) was 0.06 µg/mL (≈ 0.156 µM). The MIC (K. pneumoniae; ATCC13883, read-out: BMD MIC, K. pneumoniae ATCC 13883 type strain (polymyxin/colistin heteroresistant), MHB, mode of 6 replicates) was no more than 0.25 µg/mL, the MIC (K. pneumoniae; ATCC700603, read-out: BMD MIC, K. pneumoniae ATCC 700603 (K6), MDR, OXA-2/SHV-18, CAMHB, mode of 6 replicates) was 0.06 µg/mL (≈ 0.156 µM) and the MIC (K. pneumoniae; ATCC700603, read-out: BMD MIC, K. pneumoniae ATCC 700603 (K6), MDR, OXA-2/SHV-18, MHB, mode of 6 replicates) was no more than 0.25 µg/mL. It also gave an MIC (K. pneumoniae; BAA2146, read-out: BMD MIC, K. pneumoniae BAA-2146, MDR, ESBL, NDM-1 pos, MHB, mode of 6 replicates) greater than 32 µg/mL, an MIC (K. pneumoniae; read-out: BMD MIC, K. pneumoniae Greece CI 8_GR_13, XDR, KPC-2, PmxR, MHB, mode of 6 replicates) greater than 32 µg/mL and an MIC (K. pneumoniae; read-out: MIC, broth microdilution, K. pneumoniae 3010 spontaneous mutant, AA139 selection 4X, plate 1, colony 1, drug-free passage 1) of 0.03 µg/mL (≈ 0.0782 µM). It also gave an MIC (K. pneumoniae; read-out: MIC, broth microdilution, K. pneumoniae 3010 spontaneous mutant, AA139 selection 4X, plate 1, colony 1, drug-free passage 5) of 0.015 µg/mL (≈ 0.0391 µM), an MIC (K. pneumoniae; read-out: MIC, broth microdilution, K. pneumoniae 3010 spontaneous mutant, AA139 selection 8X, plate 1, colony 1, drug-free passage 1) of 0.03 µg/mL (≈ 0.0782 µM) and an MIC (K. pneumoniae; read-out: MIC, broth microdilution, K. pneumoniae 3010 spontaneous mutant, AA139 selection 8X, plate 1, colony 1, drug-free passage 5) of 0.03 µg/mL (≈ 0.0782 µM). For the same molecule, the MIC (K. pneumoniae; read-out: MIC, broth microdilution, K. pneumoniae ST258 spontaneous mutant, AA139 selection 4X, plate 1, colony 1, drug-free passage 1) was greater than 4 µg/mL, the MIC (K. pneumoniae; read-out: MIC, broth microdilution, K. pneumoniae ST258 spontaneous mutant, AA139 selection 4X, plate 1, colony 1, drug-free passage 5) was greater than 4 µg/mL and the MIC (P. aeruginosa; ATCC27853, read-out: BMD MIC, P. aeruginosa ATCC 27853 control strain, CAMHB, mode of 6 replicates) was no more than 0.25 µg/mL. The MIC (P. aeruginosa; ATCC27853, read-out: MIC, broth microdilution, P. aeruginosa ATCC 27853 spontaneous mutant, AA139 selection 4X, plate 1, colony 1, drug-free passage 1) was 0.25 µg/mL (≈ 0.652 µM), the MIC (P. aeruginosa; ATCC27853, read-out: MIC, broth microdilution, P. aeruginosa ATCC 27853 spontaneous mutant, AA139 selection 4X, plate 1, colony 1, drug-free passage 5) was 0.5 µg/mL (≈ 1.3 µM) and the MIC (P. aeruginosa; ATCC27853, read-out: MIC, broth microdilution, P. aeruginosa ATCC 27853 spontaneous mutant, AA139 selection 4X, plate 1, colony 2, drug-free passage 1) was 0.5 µg/mL (≈ 1.3 µM). It also gave an MIC (P. aeruginosa; ATCC27853, read-out: MIC, broth microdilution, P. aeruginosa ATCC 27853 spontaneous mutant, AA139 selection 4X, plate 1, colony 2, drug-free passage 5) of 0.25 µg/mL (≈ 0.652 µM), an MIC (P. aeruginosa; ATCC27853, read-out: MIC, broth microdilution, P. aeruginosa ATCC 27853 spontaneous mutant, AA139 selection 4X, plate 1, colony 3, drug-free passage 1) of 1 µg/mL (≈ 2.61 µM) and an MIC (P. aeruginosa; ATCC27853, read-out: MIC, broth microdilution, P. aeruginosa ATCC 27853 spontaneous mutant, AA139 selection 4X, plate 1, colony 3, drug-free passage 5) of 0.5 µg/mL (≈ 1.3 µM). The MIC (P. aeruginosa; ATCC27853, read-out: MIC, broth microdilution, P. aeruginosa ATCC 27853 spontaneous mutant, AA139 selection 4X, plate 1, colony 4, drug-free passage 1) was 1 µg/mL (≈ 2.61 µM), the MIC (P. aeruginosa; ATCC27853, read-out: MIC, broth microdilution, P. aeruginosa ATCC 27853 spontaneous mutant, AA139 selection 4X, plate 1, colony 4, drug-free passage 5) was 0.5 µg/mL (≈ 1.3 µM) and the MIC (P. aeruginosa; ATCC27853, read-out: MIC, broth microdilution, P. aeruginosa ATCC 27853 spontaneous mutant, AA139 selection 4X, plate 1, colony 5, drug-free passage 1) was 0.25 µg/mL (≈ 0.652 µM). It also gave an MIC (P. aeruginosa; ATCC27853, read-out: MIC, broth microdilution, P. aeruginosa ATCC 27853 spontaneous mutant, AA139 selection 4X, plate 1, colony 5, drug-free passage 5) of 0.5 µg/mL (≈ 1.3 µM), an MIC (P. aeruginosa; ATCC27853, read-out: MIC, broth microdilution, P. aeruginosa ATCC 27853 spontaneous mutant, AA139 selection 4X, plate 1, colony 6, drug-free passage 1) of 0.5 µg/mL (≈ 1.3 µM) and an MIC (P. aeruginosa; ATCC27853, read-out: MIC, broth microdilution, P. aeruginosa ATCC 27853 spontaneous mutant, AA139 selection 4X, plate 1, colony 6, drug-free passage 5) of 0.5 µg/mL (≈ 1.3 µM). For the same molecule, the MIC (P. aeruginosa; ATCC27853, read-out: MIC, broth microdilution, P. aeruginosa ATCC 27853 spontaneous mutant, AA139 selection 4X, plate 2, colony 1, drug-free passage 1) was 0.25 µg/mL (≈ 0.652 µM), the MIC (P. aeruginosa; ATCC27853, read-out: MIC, broth microdilution, P. aeruginosa ATCC 27853 spontaneous mutant, AA139 selection 4X, plate 2, colony 1, drug-free passage 5) was 0.25 µg/mL (≈ 0.652 µM) and the MIC (P. aeruginosa; ATCC27853, read-out: MIC, broth microdilution, P. aeruginosa ATCC 27853 spontaneous mutant, AA139 selection 4X, plate 2, colony 2, drug-free passage 1) was 0.5 µg/mL (≈ 1.3 µM). For the same molecule, the MIC (P. aeruginosa; ATCC27853, read-out: MIC, broth microdilution, P. aeruginosa ATCC 27853 spontaneous mutant, AA139 selection 4X, plate 2, colony 2, drug-free passage 5) was 0.25 µg/mL (≈ 0.652 µM), the MIC (P. aeruginosa; ATCC27853, read-out: MIC, broth microdilution, P. aeruginosa ATCC 27853 spontaneous mutant, AA139 selection 4X, plate 2, colony 3, drug-free passage 1) was 0.5 µg/mL (≈ 1.3 µM) and the MIC (P. aeruginosa; ATCC27853, read-out: MIC, broth microdilution, P. aeruginosa ATCC 27853 spontaneous mutant, AA139 selection 4X, plate 2, colony 3, drug-free passage 5) was 0.25 µg/mL (≈ 0.652 µM). It also gave an MIC (P. aeruginosa; ATCC27853, read-out: MIC, broth microdilution, P. aeruginosa ATCC 27853 spontaneous mutant, AA139 selection 4X, plate 2, colony 4, drug-free passage 1) of 0.5 µg/mL (≈ 1.3 µM), an MIC (P. aeruginosa; ATCC27853, read-out: MIC, broth microdilution, P. aeruginosa ATCC 27853 spontaneous mutant, AA139 selection 4X, plate 2, colony 4, drug-free passage 5) of 0.25 µg/mL (≈ 0.652 µM) and an MIC (P. aeruginosa; ATCC27853, read-out: MIC, broth microdilution, P. aeruginosa ATCC 27853 spontaneous mutant, AA139 selection 8X, plate 1, colony 1, drug-free passage 1) of 0.5 µg/mL (≈ 1.3 µM).
